Results from patent US20090062295A1, “Pharmaceutical Products” (MITSUBISHI PHARMA CORPORATION, priority 2005, published 2009).

Assay: Influence of pH on content of the compound in solution after storage (Example 1, HPLC)
Format: physicochemical
Details: 1 mg/mL in Britton-Robinson buffer at pH 2, 3, 4, 5 and 6, 1 month storage at 25 or 40° C.
Protocol: A solution was prepared so as to contain the compound at 1 mg/mL of a solvent, and divided as aliquots in clear test tubes and the tubes were tightly sealed. The Britton-Robinson buffer was used as the solvent to prepare sample solutions at pH 2, 3, 4, 5 and 6.
After 1 month storage of these sample solutions under each temperature condition of 25 or 40° C., the contents of the compound were determined by HPLC under the following measurement conditions.
Sample solution: 1 mL of specimen/25 mL of mobile phase
Temperature: Room temperature Mobile phase: 1 M Et3N (adjusted at pH 8 with AcOH):CH3CN:H2O=50:250:700 Flow rate: […]
Loaded volume: 20 μL Quantification method: Corrected area percentage

With `Cl.O.O.O.O=C1CCC(c2ccc(Nc3ccncc3)cc2)=NN1` [the compound, 6-[4-(4-pyridylamino)phenyl]-4,5-dihydro-3(2H)-pyridazinone hydrochloride trihydrate] the “remaining ratio of the compound” value was “highest at pH 5 to 6”.
